Tested on: rye bx-like glucosyl transferase (SEQ ID No 11)
Assay: UDP-Glo glucosyl transferase assay, purified enzyme
Assay type: biochemical
Conditions: herbicide V; close to the detection limit
Description: Glucosyl transferase activity is assayed via measurement of acceptor substrate-dependent production of UDP from ultrapure UDP-glucose using the Promega UDP-Glo™ method and according to the manufacturer's instructions. Assays are run in 96 well microtiter plates.
Enzyme, typically at a stock concentration of ˜2 mg/ml is diluted to an appropriate concentration in 50 mM K^+ Hepes buffer at pH7.5 containing 0.5 mg/mL bovine serum albumin (BSA) and 5 ul aliquots of this diluted enzyme added to each well of a Perkin Elmer white ½ area 96 well plate. […] Assays are run for an appropriate time (usually 10 to 60 min) so that the amount of UDP formed lies within the most nearly linear part of the UDP standard curve and are stopped with the addition and mixing of 25 ul UDP-Glo™ detection reagent (prepared as described below). Plates are then incubated at room temperature for 60 minutes and then read in a luminescence plate reader (Perkin Elmer Envision 2130 Multilabel Reader). A UDP standard curve is run alongside each set of assays and reagent blank control assays run with DMSO in place of test herbicide. Typically, 300 pmol of UDP corresponds to a Relative Luminescence Unit (RLU) reading of about 1.5E7 and the response curve between 0 and 600 pmol is fitted to a polynomial function (see for example FIG. 2).
The UDP-Glo™ reagents are made up and used according to the manufacturer's instructions. Thus, Nucleotide Detection Buffer and ATP are combined to make nucleotide detection reagent (NDR) dispensed into aliquots and frozen to be freshly thawed before use.
Km and kcat values in respect of UDP-glucose are derived by carrying out experiments to measure initial rates over a suitable range of concentrations of UDP glucose out at a fixed near saturating concentration of acceptor substrate. Best fit values of kcat, Km and kcat/Km are obtained by direct fitting of the data to the Michaelis-Menten equation using Graphpad Prism™ software.
DNA sequences, optimized for E. coli codon usage, corresponding to SEQ IDs 1-15, encoding BX8 and BX9 orthologue polypeptides derived from a range of species (as depicted in FIG. 1) were synthesized by Genewiz (South Plainfield, USA) with 5′ NdeI and 3′ XhoI restriction sites. The various orthologues were synthesized with either a N-terminal 6×His purification tag or C-terminal 6×His purification tag (i.e. tried both ways to achieve best expression of activity) and cloned into the E. coli expression plasmid pET24a (Novagen) via the NdeI and XhoI restriction sites. Expression, purification and assay was as described in Example 1.
Assays were carried out as described in Example 1. Partly purified C-terminally his tagged w/t Larkspur enzyme (SEQ ID No 10 with a 6 amino acid C-terminal tag) catalyzed glucosyl transfer to herbicide V at a rate estimated to be about 0.0065/s/pmol at 1 mM herbicide V. The similarly-tagged w/t bx-like enzymes from rye (SEQ ID No 11) and from wheat (SEQ ID No 4) were also active but only at levels close to the detection limit at ˜0.0015/s/pmol. Further examples of assay results from further experiments are depicted in Table 14. All of the proteins were C-terminally his tagged versions of the sequences referenced except for the Zea mays bx8 SEQ ID NO: 2 which was N-terminally his tagged.

Q: `CN1CC(O)N(c2cc(C(F)(F)F)ccn2)C1=O` (stereo not shown) [Compound V] was tested. Which “rate of glucosyl transfer” value did it give?
A: ~0.0015 s⁻¹ pmol⁻¹
